Reference: patent US10544120B2, “Biaryl kinase inhibitors” (BRISTOL-MYERS SQUIBB COMPANY, priority 2015, dated 2020)

What follows are molecules tested against GST-Xa-hAAK1 (Homo sapiens (Human), UniProt Q2M2I8) (assay: AAK1 Kinase Assay). Conditions: bacterially expressed GST-Xa-hAAK1 3.5 nM; ATP 22 μM; fluoresceinated peptide 1.5 μM; 3 hours at room temperature; Caliper LabChip 3000.
Assay type: biochemical
Procedure: The assays were performed in U-bottom 384-well plates. […] The reactions were initiated by the combination of bacterially expressed, GST-Xa-hAAK1 with substrates and test compounds. The reactions were incubated at room temperature for 3 hours and terminated by adding 60 μl of 35 mM EDTA buffer to each sample. The reactions were analyzed on the Caliper LabChip 3000 (Caliper, Hopkinton, Mass.) by electrophoretic separation of the fluorescent substrate and phosphorylated product. […] Compounds were dissolved at 10 mM in dimethylsulfoxide (DMSO) and evaluated at eleven concentrations. IC50 values were derived by non-linear regression analysis.

Chain of GST-Xa-hAAK1 (Q2M2I8 whole entry): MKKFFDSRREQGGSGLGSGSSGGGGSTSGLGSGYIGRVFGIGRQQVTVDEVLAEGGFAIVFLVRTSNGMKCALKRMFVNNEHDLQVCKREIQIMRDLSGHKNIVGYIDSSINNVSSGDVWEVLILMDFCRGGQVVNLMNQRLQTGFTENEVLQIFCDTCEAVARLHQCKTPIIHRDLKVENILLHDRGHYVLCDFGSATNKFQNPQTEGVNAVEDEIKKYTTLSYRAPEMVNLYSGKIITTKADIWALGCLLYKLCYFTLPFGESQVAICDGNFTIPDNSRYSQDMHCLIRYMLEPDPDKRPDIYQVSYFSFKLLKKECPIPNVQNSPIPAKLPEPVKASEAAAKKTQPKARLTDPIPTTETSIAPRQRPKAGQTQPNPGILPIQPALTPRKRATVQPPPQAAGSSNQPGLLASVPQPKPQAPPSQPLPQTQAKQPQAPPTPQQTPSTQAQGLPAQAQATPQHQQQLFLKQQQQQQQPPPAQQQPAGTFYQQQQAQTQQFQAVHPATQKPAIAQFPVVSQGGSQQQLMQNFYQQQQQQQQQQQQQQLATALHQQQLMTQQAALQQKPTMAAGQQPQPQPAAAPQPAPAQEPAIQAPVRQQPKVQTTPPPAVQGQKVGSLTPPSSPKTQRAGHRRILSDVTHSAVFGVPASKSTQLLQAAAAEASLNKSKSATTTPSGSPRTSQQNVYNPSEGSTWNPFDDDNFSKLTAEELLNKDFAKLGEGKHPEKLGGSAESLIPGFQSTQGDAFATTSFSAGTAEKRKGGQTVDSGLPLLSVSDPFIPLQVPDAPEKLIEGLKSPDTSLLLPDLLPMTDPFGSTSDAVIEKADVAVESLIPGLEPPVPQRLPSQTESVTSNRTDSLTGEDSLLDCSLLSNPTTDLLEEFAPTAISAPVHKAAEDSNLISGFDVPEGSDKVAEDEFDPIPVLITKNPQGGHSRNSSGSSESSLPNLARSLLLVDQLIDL

**Q.** For CC(C)CCC(=O)Nc1cc(-c2ccc(OC[C@@](C)(N)CC(C)C)c(C(F)(F)F)c2)ccn1 [Example 397, (S)-N-(4-(4-((2-amino-2,4-dimethylpentyl)oxy)-3-(trifluoromethyl)phenyl)pyridin-2-yl)-4-methylpentanamide], which IC50 is on record?
**A.** 0.7 nM

**Q.** Which IC50 does the source give for CC(C)C[C@](C)(N)COc1ccc(-c2ccnc(NC(=O)OC(C)C)n2)cc1C(F)(F)F [Example 311, (S)-isopropyl (4-(4-((2-amino-2,4-dimethylpentyl)oxy)-3-(trifluoromethyl)phenyl)pyrimidin-2-yl)carbamate] here?
**A.** 3.9 nM

**Q.** Which IC50 does the source give for CC(C)C[C@](C)(N)COc1ccc(-c2ccnc(C(F)(F)F)n2)cc1F [Example 331, (S)-1-(2-fluoro-4-(2-(trifluoromethyl)pyrimidin-4-yl)phenoxy)-2,4-dimethylpentan-2-amine] here?
**A.** 45 nM

**Q.** For CCOC(=O)Nc1nccc(-c2ccc(OC[C@@](C)(N)CC(C)C)c(C(F)(F)F)c2)n1 [Example 314, (S)-ethyl (4-(4-((2-amino-2,4-dimethylpentyl)oxy)-3-(trifluoromethyl)phenyl)pyrimidin-2-yl)carbamate], which IC50 is on record?
**A.** 1.2 nM

**Q.** Cc1cc(-c2ccnc(F)c2)ncc1OC[C@@](C)(N)CC(C)C [Example 344, (S)-1-((2′-fluoro-4-methyl-[2,4′-bipyridin]-5-yl)oxy)-2,4-dimethylpentan-2-amine] was tested. Which IC50 did it give?
**A.** 26 nM

**Q.** Which IC50 does the source give for COc1cc(-c2ccc(OC[C@@](C)(N)CC(C)C)c(C(F)(F)F)c2)ncn1 [Example 440, (S)-1-(4-(6-methoxypyrimidin-4-yl)-2-(trifluoromethyl)phenoxy)-2,4-dimethylpentan-2-amine] here?
**A.** 308 nM

**Q.** For CC(C)C[C@](C)(N)COc1ccc(-c2ccnc(Cl)n2)cc1C(F)(F)F [Example 370, (S)-1-(4-(2-chloropyrimidin-4-yl)-2-(trifluoromethyl)phenoxy)-2,4-dimethylpentan-2-amine], which IC50 is on record?
**A.** 1.4 nM

**Q.** With COC(=O)Nc1cc(-c2ccc(OC[C@@](C)(N)CC(C)C)c(C)c2)ncn1 [Example 433, (S)-methyl (6-(4-((2-amino-2,4-dimethylpentyl)oxy)-3-methylphenyl)pyrimidin-4-yl)carbamate] as the molecule, how does the IC50 read?
**A.** 1.8 nM

**Q.** Cc1nccc(-c2cnc(OC[C@](C)(N)CC(C)C)c(C)c2)n1 [Example 263, (R)-2,4-dimethyl-1-((3-methyl-5-(2-methylpyrimidin-4-yl)pyridin-2-yl)oxy)pentan-2-amine] was tested. Which IC50 did it give?
**A.** 950 nM

**Q.** For CC(C)C[C@](C)(N)COc1ccc(-c2cc(Cl)ncn2)cc1C(F)(F)F [Example 442, (S)-1-(4-(6-chloropyrimidin-4-yl)-2-(trifluoromethyl)phenoxy)-2,4-dimethylpentan-2-amine], which IC50 is on record?
**A.** 19 nM

**Q.** CC(C)C[C@](C)(N)COc1ccc(-c2ccnc(O)n2)cc1C(F)(F)F [Example 317, (S)-4-(4-((2-amino-2,4-dimethylpentyl)oxy)-3 (trifluoromethyl)phenyl)pyrimidin-2-ol] was tested. Which IC50 did it give?
**A.** 103 nM

**Q.** Which IC50 does the source give for CC(C)CC1(COc2ccc(-c3ccnc(C(F)F)c3)nc2C(F)F)CCN1 (centres unmarked) [Example 326, 2′,6-bis(difluoromethyl)-5-((2-isobutylazetidin-2-yl)methoxy)-2,4′-bipyridine] here?
**A.** 42 nM

**Q.** How did the IC50 turn out when COC(=O)Nc1nccc(-c2ccc(OC[C@@](C)(N)CC(C)C)c(C#N)c2)n1 [Example 305, (S)-methyl (4-(4-((2-amino-2,4-dimethylpentyl)oxy)-3-cyanophenyl)pyrimidin-2-yl)carbamate] was run?
**A.** 1 nM

**Q.** For COC(=O)Nc1nccc(-c2ccc(OC[C@@](C)(N)CC(C)C)c(CF)n2)n1 [Example 388, (S)-methyl (4-(5-((2-amino-2,4-dimethylpentyl)oxy)-6-(fluoromethyl)pyridin-2-yl)pyrimidin-2-yl)carbamate], which IC50 is on record?
**A.** 4.7 nM

**Q.** With Cc1cc(-c2cnc(OC[C@@](C)(N)CC(C)C)c(Cl)c2)ncn1 [Example 445, (S)-1-((3-chloro-5-(6-methylpyrimidin-4-yl)pyridin-2-yl)oxy)-2,4-dimethylpentan-2-amine] as the molecule, how does the IC50 read?
**A.** 62 nM

**Q.** For Cc1cc(-c2ccnc(C(F)(F)F)n2)ccc1OC[C@@](C)(N)CC(C)C [Example 330, (S)-2,4-dimethyl-1-(2-methyl-4-(2-(trifluoromethyl)pyrimidin-4-yl)phenoxy)pentan-2-amine], which IC50 is on record?
**A.** 7.3 nM

**Q.** How did the IC50 turn out when COc1cc(-c2cnc(OC[C@@](C)(N)CC(C)C)c(C#N)c2)ccn1 [Example 385, (S)-6-((2-amino-2,4-dimethylpentyl)oxy)-2′-methoxy-[3,4′-bipyridine]-5-carbonitrile] was run?
**A.** 50 nM

**Q.** For Cc1nc(-c2ccnc(N)c2)ccc1OC[C@@](C)(N)CC(C)C [Example 422, (S)-5-((2-amino-2,4-dimethylpentyl)oxy)-6-methyl-[2,4′-bipyridin]-2′-amine], which IC50 is on record?
**A.** 3.5 nM

**Q.** Cc1cc2c(-c3ccc(OC[C@@](C)(N)CC(C)C)c(C(F)(F)F)c3)ccnc2[nH]1 [Example 327, (S)-2,4-dimethyl-1-(4-(2-methyl-1H-pyrrolo[2,3-b]pyridin-4-yl)-2-(trifluoromethyl)phenoxy)pentan-2-amine] was tested. Which IC50 did it give?
**A.** 0.8 nM

**Q.** For Cc1cc(-c2cc(C)c(OC[C@@](C)(N)CC(C)C)cn2)ncn1 [Example 450, (S)-2,4-dimethyl-1-((4-methyl-6-(6-methylpyrimidin-4-yl)pyridin-3-yl)oxy)pentan-2-amine], which IC50 is on record?
**A.** 126 nM

**Q.** CC(C)C[C@](C)(N)COc1ccc(-c2ccnc(C(F)(F)F)c2)nc1C(F)F [Example 356, (S)-1-((6-(difluoromethyl)-2′-(trifluoromethyl)-[2,4′-bipyridin]-5-yl)oxy)-2,4-dimethylpentan-2-amine] was tested. Which IC50 did it give?
**A.** 82 nM

**Q.** How did the IC50 turn out when CC(C)C[C@](C)(N)COc1ccc(-c2ccnc(C(C)C)n2)cc1F [Example 337, (S)-1-(2-fluoro-4-(2-isopropylpyrimidin-4-yl)phenoxy)-2,4-dimethylpentan-2-amine] was run?
**A.** 886 nM

**Q.** How did the IC50 turn out when Cc1cc(-c2ccc(OC[C@@](C)(N)CC(C)C)c(C#N)c2)ncn1 [Example 436, (S)-2-((2-amino-2,4-dimethylpentyl)oxy)-5-(6-methylpyrimidin-4-yl)benzonitrile] was run?
**A.** 6.2 nM

**Q.** Which IC50 does the source give for CC(C)CC(=O)Nc1cc(-c2ccc(OC[C@@](C)(N)CC(C)C)c(C(F)(F)F)c2)ccn1 [Example 395, (S)-N-(4-(4-((2-amino-2,4-dimethylpentyl)oxy)-3-(trifluoromethyl)phenyl)pyridin-2-yl)-3-methylbutanamide] here?
**A.** 0.7 nM

**Q.** Cc1cc(-c2ccc(OC[C@@](C)(N)CC(C)C)c(C)c2)ncn1 [Example 384, (S)-2,4-dimethyl-1-(2-methyl-4-(6-methylpyrimidin-4-yl)phenoxy)pentan-2-amine] was tested. Which IC50 did it give?
**A.** 46 nM

**Q.** Which IC50 does the source give for CC(C)C[C@](C)(N)COc1cc(F)c(-c2ccnc(C(F)F)c2)cc1F [Example 510, (S)-1-(4-(2-(difluoromethyl)pyridin-4-yl)-2,5-difluorophenoxy)-2,4-dimethylpentan-2-amine] here?
**A.** 19 nM

**Q.** For COC(=O)Nc1nccc(-c2cnc(OC[C@@](C)(N)CC(C)C)c(Cl)c2)n1 [Example 375, (S)-methyl (4-(6-((2-amino-2,4-dimethylpentyl)oxy)-5-chloropyridin-3-yl)pyrimidin-2-yl)carbamate], which IC50 is on record?
**A.** 2.6 nM

**Q.** With Cc1nccc(-c2cnc(OC[C@@](C)(N)CC(C)C)c(C)c2)n1 [Example 268, (S)-2,4-dimethyl-1-((3-methyl-5-(2-methylpyrimidin-4-yl)pyridin-2-yl)oxy)pentan-2-amine] as the molecule, how does the IC50 read?
**A.** 11 nM

**Q.** For Cc1cc(-c2ccc(OC[C@@](C)(N)CC(C)C)c(Cl)c2)ncn1 [Example 308, (S)-1-(2-chloro-4-(6-methylpyrimidin-4-yl)phenoxy)-2,4-dimethylpentan-2-amine], which IC50 is on record?
**A.** 12 nM

**Q.** Cc1nccc(-c2ccc(OC[C@@](C)(N)CC(C)C)c(F)c2F)n1 [Example 511, (S)-1-(2,3-difluoro-4-(2-methylpyrimidin-4-yl)phenoxy)-2,4-dimethylpentan-2-amine] was tested. Which IC50 did it give?
**A.** 5.1 nM

**Q.** COc1cc(-c2ccc(OC[C@@](C)(N)CC(C)C)c(C)c2)ccn1 [Example 386, (S)-1-(4-(2-methoxypyridin-4-yl)-2-methylphenoxy)-2,4-dimethylpentan-2-amine] was tested. Which IC50 did it give?
**A.** 13 nM

**Q.** COC(=O)Nc1nccc(-c2ccc(OC[C@@](C)(N)CC(C)C)c(C)n2)n1 [Example 312, (S)-methyl (4-(5-((2-amino-2,4 dimethylpentyl)oxy)-6-methylpyridin-2-yl)pyrimidin-2-yl)carbamate] was tested. Which IC50 did it give?
**A.** 4.9 nM

**Q.** How did the IC50 turn out when COc1cc(-c2ccc(OC[C@@](C)(N)CC(C)C)c(C(F)F)c2)ccn1 [Example 383, (S)-1-(2-(difluoromethyl)-4-(2-methoxypyridin-4-yl)phenoxy)-2,4-dimethylpentan-2-amine] was run?
**A.** 2 nM

**Q.** Which IC50 does the source give for Cc1cc(-c2ccc(OC[C@@](C)(N)CC(C)C)c(C(F)F)c2)ncn1 [Example 350, (S)-1-(2-(difluoromethyl)-4-(6-methylpyrimidin-4-yl)phenoxy)-2,4-dimethylpentan-2-amine] here?
**A.** 39 nM

**Q.** Which IC50 does the source give for Cc1cc(-c2cc(F)c(OC[C@@](C)(N)CC(C)C)cc2F)ncn1 [Example 435, (S)-1-(2,5-difluoro-4-(6-methylpyrimidin-4-yl)phenoxy)-2,4-dimethylpentan-2-amine] here?
**A.** 63 nM

**Q.** How did the IC50 turn out when Cc1cc(-c2cc(N)ncn2)ccc1OC[C@@](C)(N)CC(C)C [Example 431, (S)-6-(4-((2-amino-2,4-dimethylpentyl)oxy)-3-methylphenyl)pyrimidin-4-amine] was run?
**A.** 5.4 nM

**Q.** With COC(=O)Nc1nccc(-c2cc(F)c(OC[C@@](C)(N)CC(C)C)cc2F)n1 [Example 508, (S)-methyl (4-(4-((2-amino-2,4-dimethylpentyl)oxy)-2,5-difluorophenyl)pyrimidin-2-yl)carbamate] as the molecule, how does the IC50 read?
**A.** 25 nM

**Q.** For COC(=O)Nc1cc(-c2cnc(OC[C@@](C)(N)CC(C)C)c(C)c2)ncn1 [Example 438, (S)-methyl (6-(6-((2-amino-2,4-dimethylpentyl)oxy)-5-methylpyridin-3-yl)pyrimidin-4-yl)carbamate], which IC50 is on record?
**A.** 6.5 nM
